Measurements published in patent US12728177B2, “Disinfectant composition with rapid antiviral efficacy” (priority 2015, dated 2026).

Legend:
[1] = tested on: Bacteriophage Phi X174 (ATCC 13706-81); experiment: Virucidal infectivity (percent reduction in virus infectivity, E. coli outgrowth with resazurin dye); conditions: 10-minute exposure;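 also: exposed phage diluted into broth, E. coli outgrowth followed 16-24 h at 37 °C by fluorescence rate, unexposed phage set as 100% signal, phage-free as 0%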
Procedure: Bacteriophage Phi X174 (ATCC 13706-81) was added 1:10 (−108 plaque forming units (PFU) per sample) into a solution containing the composition of interest. Following a 10-minute exposure, the sample was transferred 1:10 into Tryptic Soy Broth (TSB). Following 10 minutes in TSB, a second 1:10 dilution was completed into an outgrowth solution for the Phi X174 host (E. coli ATCC 13706) that contained TSB and a resazurin dye. E. coli outgrowth was then monitored at 37° C. for 16-24 hours and the rate of fluorescence development was calculated. The rate observed when Phi X174 was not exposed to any composition represented a 100% Phi X174 signal. The rate observed without Phi X174 present represented a “0% signal.” The rate obtained following Phi X174 exposure to a given composition was compared to the signal obtained with no exposure to calculate the “percent reduction in virus infectivity.”

[2] = 25° C.; cited from earlier work
[3] = secondary agent 2-7 mM + Maleic Acid 3 mM
[4] = secondary agent 2-7 mM + Phosphonc Acid 50-150 mM
[5] = secondary agent 2-7 mM + Sulfosuccinic Acid 10-32 mM

## O=C(O)CC(C(=O)O)S(=O)(=O)O (stereo not shown) [Sulfosuccinic Acid]
[1]; Sulfosuccinic Acid 10-32 mM, no secondary agent
  reduction in virus infectivity, Primary Antiviral Agent without secondary agent (None): 0-75%
[2]
  pka1 (first acid dissociation constant): −1.65

## [Cl-].[Cl-].[Zn+2] [Zinc Chloride]
[1]; agent alone 2 mM
  % Reduction, Secondary Antiviral Agent Alone: 5%
[1]; agent alone 6 mM
  % Reduction, Secondary Antiviral Agent Alone: 0%
[1]; agent alone 18 mM
  % Reduction, Secondary Antiviral Agent Alone: 0%
[1]; agent alone 53 mM
  % Reduction, Secondary Antiviral Agent Alone: 0%
[1]; secondary agent 53 mM + Maleic Acid 3 mM
  reduction in virus infectivity, in Combination with Maleic Acid (3 mM): 0%
[1]; secondary agent 53 mM + Phosphonc Acid 50-150 mM
  reduction in virus infectivity, in Combination with Phosphonc Acid (50-150 mM): 88%
[1]; secondary agent 53 mM + Sulfosuccinic Acid 10-32 mM
  reduction in virus infectivity, in Combination with Sulfosuccinic Acid (10-32 mM): 99%
[1]; [3]
  reduction in virus infectivity, in Combination with Maleic Acid (3 mM): 99%
[1]; [4]
  reduction in virus infectivity, in Combination with Phosphonc Acid (50-150 mM): 10%
[1]; [5]
  reduction in virus infectivity, in Combination with Sulfosuccinic Acid (10-32 mM): 99%
[1]; secondary agent 6-13 mM + Maleic Acid 3 mM
  reduction in virus infectivity, in Combination with Maleic Acid (3 mM): 99%
[1]; secondary agent 6-13 mM + Phosphonc Acid 50-150 mM
  reduction in virus infectivity, in Combination with Phosphonc Acid (50-150 mM): 28%
[1]; secondary agent 6-13 mM + Sulfosuccinic Acid 10-32 mM
  reduction in virus infectivity, in Combination with Sulfosuccinic Acid (10-32 mM): 99%
[1]; secondary agent 18-26 mM + Maleic Acid 3 mM
  reduction in virus infectivity, in Combination with Maleic Acid (3 mM): 99%
[1]; secondary agent 18-26 mM + Sulfosuccinic Acid 10-32 mM
  reduction in virus infectivity, in Combination with Sulfosuccinic Acid (10-32 mM): 99%

## [Cl][Fe]([Cl])[Cl] [iron (iii) chloride]
[1]; agent alone 8 mM
  % Reduction, Secondary Antiviral Agent Alone: 3%
[1]; agent alone 17 mM
  % Reduction, Secondary Antiviral Agent Alone: 18%
[1]; agent alone 33 mM
  % Reduction, Secondary Antiviral Agent Alone: 21%
[1]; agent alone 66 mM
  % Reduction, Secondary Antiviral Agent Alone: 32%
[1]; secondary agent 8 mM + Maleic Acid 3 mM
  reduction in virus infectivity, in Combination with Maleic Acid (3 mM): 0%
[1]; secondary agent 8 mM + Sulfosuccinic Acid 10-32 mM
  reduction in virus infectivity, in Combination with Sulfosuccinic Acid (10-32 mM): 99%
[1]; secondary agent 17 mM + Maleic Acid 3 mM
  reduction in virus infectivity, in Combination with Maleic Acid (3 mM): 23%
[1]; secondary agent 17 mM + Sulfosuccinic Acid 10-32 mM
  reduction in virus infectivity, in Combination with Sulfosuccinic Acid (10-32 mM): 99%
[1]; secondary agent 33 mM + Maleic Acid 3 mM
  reduction in virus infectivity, in Combination with Maleic Acid (3 mM): 0%
[1]; secondary agent 33 mM + Sulfosuccinic Acid 10-32 mM
  reduction in virus infectivity, in Combination with Sulfosuccinic Acid (10-32 mM): 99%
[1]; secondary agent 66 mM + Maleic Acid 3 mM
  reduction in virus infectivity, in Combination with Maleic Acid (3 mM): 0%
[1]; secondary agent 66 mM + Sulfosuccinic Acid 10-32 mM
  reduction in virus infectivity, in Combination with Sulfosuccinic Acid (10-32 mM): 99%

## Aluminum chlorohydrate
[1]; agent alone 2 mM
  % Reduction, Secondary Antiviral Agent Alone: 1%
[1]; agent alone 6 mM
  % Reduction, Secondary Antiviral Agent Alone: 3%
[1]; agent alone 18 mM
  % Reduction, Secondary Antiviral Agent Alone: 2%
[1]; agent alone 55 mM
  % Reduction, Secondary Antiviral Agent Alone: 9%
[1]; secondary agent 55 mM + Maleic Acid 3 mM
  reduction in virus infectivity, in Combination with Maleic Acid (3 mM): 99%
[1]; secondary agent 55 mM + Phosphonc Acid 50-150 mM
  reduction in virus infectivity, in Combination with Phosphonc Acid (50-150 mM): 68%
[1]; secondary agent 55 mM + Sulfosuccinic Acid 10-32 mM
  reduction in virus infectivity, in Combination with Sulfosuccinic Acid (10-32 mM): 99%
[1]; [3]
  reduction in virus infectivity, in Combination with Maleic Acid (3 mM): 17%
[1]; [4]
  reduction in virus infectivity, in Combination with Phosphonc Acid (50-150 mM): 43%
[1]; [5]
  reduction in virus infectivity, in Combination with Sulfosuccinic Acid (10-32 mM): 99%
[1]; secondary agent 6-14 mM + Maleic Acid 3 mM
  reduction in virus infectivity, in Combination with Maleic Acid (3 mM): 28%
[1]; secondary agent 6-14 mM + Phosphonc Acid 50-150 mM
  reduction in virus infectivity, in Combination with Phosphonc Acid (50-150 mM): 34%
[1]; secondary agent 6-14 mM + Sulfosuccinic Acid 10-32 mM
  reduction in virus infectivity, in Combination with Sulfosuccinic Acid (10-32 mM): 99%
[1]; secondary agent 18-27 mM + Maleic Acid 3 mM
  reduction in virus infectivity, in Combination with Maleic Acid (3 mM): 9%
[1]; secondary agent 18-27 mM + Phosphonc Acid 50-150 mM
  reduction in virus infectivity, in Combination with Phosphonc Acid (50-150 mM): 29%
[1]; secondary agent 18-27 mM + Sulfosuccinic Acid 10-32 mM
  reduction in virus infectivity, in Combination with Sulfosuccinic Acid (10-32 mM): 99%

## Laureth-9 [Hetoxol LA-9]
[1]; agent alone 6 mM
  % Reduction, Secondary Antiviral Agent Alone: 0%
[1]; agent alone 17 mM
  % Reduction, Secondary Antiviral Agent Alone: 0%
[1]; agent alone 50 mM
  % Reduction, Secondary Antiviral Agent Alone: 0%
[1]; agent alone 150 mM
  % Reduction, Secondary Antiviral Agent Alone: 2%
[1]; secondary agent 0.2 mM + Maleic Acid 3 mM
  reduction in virus infectivity, in Combination with Maleic Acid (3 mM): 9%
[1]; secondary agent 0.2 mM + Phosphonc Acid 50-150 mM
  reduction in virus infectivity, in Combination with Phosphonc Acid (50-150 mM): 57%
[1]; secondary agent 0.2 mM + Sulfosuccinic Acid 10-32 mM
  reduction in virus infectivity, in Combination with Sulfosuccinic Acid (10-32 mM): 5%
[1]; secondary agent 1 mM + Maleic Acid 3 mM
  reduction in virus infectivity, in Combination with Maleic Acid (3 mM): 65%
[1]; secondary agent 1 mM + Phosphonc Acid 50-150 mM
  reduction in virus infectivity, in Combination with Phosphonc Acid (50-150 mM): 62%
[1]; secondary agent 1 mM + Sulfosuccinic Acid 10-32 mM
  reduction in virus infectivity, in Combination with Sulfosuccinic Acid (10-32 mM): 0%
[1]; secondary agent 5 mM + Maleic Acid 3 mM
  reduction in virus infectivity, in Combination with Maleic Acid (3 mM): 0%
[1]; secondary agent 5 mM + Phosphonc Acid 50-150 mM
  reduction in virus infectivity, in Combination with Phosphonc Acid (50-150 mM): 11%
[1]; secondary agent 5 mM + Sulfosuccinic Acid 10-32 mM
  reduction in virus infectivity, in Combination with Sulfosuccinic Acid (10-32 mM): 0%
[1]; secondary agent 27 mM + Maleic Acid 3 mM
  reduction in virus infectivity, in Combination with Maleic Acid (3 mM): 0%
[1]; secondary agent 27 mM + Phosphonc Acid 50-150 mM
  reduction in virus infectivity, in Combination with Phosphonc Acid (50-150 mM): 10%
[1]; secondary agent 27 mM + Sulfosuccinic Acid 10-32 mM
  reduction in virus infectivity, in Combination with Sulfosuccinic Acid (10-32 mM): 0%
